On the set-up of data set [1]: method as in PMID 30296546. To be noted: cited from earlier work.
The next data set relates to Caco-2 cells. On the set-up: method as in PMID 30296546. To be noted: cited from earlier work.
Details of data set [2]: method as in PMID 30296546. To be noted: cited from earlier work. This is another data set of the same source.
In data set [3] the target is T1, 17β-HSD10 (Homo sapiens, UniProt Q99714).
T1 construct: inferred from Ni-NTA purification with imidazole elution; made in house; host or cells: E. coli BL21 (DE3)
T1 sequence (Q99714 1-261): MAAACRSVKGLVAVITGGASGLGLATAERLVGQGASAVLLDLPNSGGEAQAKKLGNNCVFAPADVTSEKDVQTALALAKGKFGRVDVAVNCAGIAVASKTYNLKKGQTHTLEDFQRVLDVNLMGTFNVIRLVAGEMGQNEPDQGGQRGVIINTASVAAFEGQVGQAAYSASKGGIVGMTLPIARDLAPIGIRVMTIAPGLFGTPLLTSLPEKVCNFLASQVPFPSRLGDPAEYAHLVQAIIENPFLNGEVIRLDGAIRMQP
Kind of data set: Inhibition of allopregnanolone to 5α-dihydroprogesterone transformation by recombinant 17β-HSD10. The format is biochemical. The settings on record: 20 μM allopregnanolone as substrate; mean ± SEM (n = 4). On the procedure:
Compound 23 (5 mM stock solution) was diluted with DMSO to the working concentrations. DMSO was used as vehicle control. The enzyme activity was determined as described in the previous section; the only difference was the replacement of 25 μM 17β-estradiol with 20 μM allopregnanolone as 17β-HSD10 substrate. For IC50 value determination, dose–response inhibition at 10 different concentrations of inhibitor (0.16–33.75 μM) was determined, and the data were analyzed by GraphPad Prism 8.4.3 (GraphPad Software Inc.). All measurements were performed in a tetraplicate.

The test system of the next data set is HEK-293 cells. Kind of data set: CellTox Green cytotoxicity assay. It is filed as cell-based. To be noted: HEK-293, up to 20 μM. On the procedure:
Finally, because the strongest inhibitor identified in vitro compound 23 has a favorable permeability coefficient, its potency to inhibit 17β-HSD10 also at the cellular level was determined. First, it was necessary to exclude the possibility that higher concentrations of compound 23 could be unfavorable to cells. The effects of compound 23 on the cellular viability and cytotoxicity of this compound (1, 10, and 20 μM) were determined using CellTiter-Glo Viability Assay and CellTox Green Assay, respectively, on HEK-293 cell line.
HEK-293 cells in DMEM (Capricorn) were supplemented with fetal bovine serum (10%, Gibco), L-glutamine (2 mM, Lonza), and nonessential amino acid additives (Gibco). Cells were maintained at 37 °C under a humidified atmosphere of 5% CO2. Compound 23 was tested on the HEK-293 cell line on cell viability using CellTox Green (G8741, Promega) and the CellTiter-Glo 2.0 kit (G9241, Promega), respectively, to establish their cytotoxic effect. Using a Tecan Spark 10 M instrument, the measurements were performed as end point methods in the multiplex. For multiplex measurement, 7500 cells were seeded per well in 50 μL of culture media and cultured for 24 h before the addition of selected compounds. […] Next, the CellTiter-Glo Luminescent Cell Viability Assay with an integration time of 500 ms was determined.

The target in data set [4] is T1, 17β-HSD10. In words: Inhibition type determination with respect to substrate 17β-estradiol (Hanes–Woolf plot). The settings on record: compound at 3, 6 and 9 μM, 17β-estradiol 12.5–75 μM, NAD+ 500 μM. It is filed as biochemical. On the procedure: The uninhibited enzymatic reaction (0 μM 23) was compared with the enzymatic reaction at three concentrations of compound 23 (3, 6, and 9 μM) using 17β-estradiol as the substrate. […] Such inhibitor binds the enzyme preventing the formation of the enzyme–substrate complex. […] This hypothesis was confirmed by the kinetic experiment. The obtained data were linearized by using Hanes–Woolf plot (Figure 2).
The type of inhibition of compound 23 was determined with respect to the substrate 17β-estradiol. The inhibitor was determined at three different concentrations (3, 6, and 9 μM) in combination with different concentrations of 17β-estradiol (12.5–75 μM) and a saturated NAD^+ concentration (500 μM). As vehicle control, DMSO was used. The obtained data were analyzed using GraphPad Prism 8.4.3 (GraphPad Software Inc.). All measurements were performed in triplicate.

The target in data set [5] is T2, 17β-HSD10 overexpressed in HEK-293 (HEK-293-HSD10 cell line) (Homo sapiens, UniProt Q99714).
T2 construct: expressed in transfected cells; host or cells: HEK-293 (HEK-293-HSD10)
T2 sequence (Q99714 1-261): T1 sequence (Q99714 1-261)
In words: Fluorogenic (−)–CHANA assay for cellular inhibition of 17β-HSD10. The settings on record: HEK-293-HSD10, (−)–CHANA probe. It is filed as cell-based. On the procedure: Identical concentrations of compound 23 were used for fluorogenic cellular assay using a special probe (−)–CHANA as a substrate for 17β-HSD10 overexpressed in HEK-293 (HEK-293-HSD10 cell line).[15] […] The exact IC50 value at the cellular level was not possible to determine because of some method interferences, as well as its unknown cytotoxic characteristics. Higher IC50 (>20 μM) is in agreement with the high concentration of 17β-HSD10 in the model cell line.[15]
A previously published cell line with overexpressed 17β-HSD10 (HEK-293-HSD10)[15] was used to measure 17β-HSD10 inhibition in the cellular environment. For this purpose, the (−)–CHANA fluorogenic probe was used. The cells (density 1 × 10^4 cells per well) were seeded in DMEM (200 μL) without phenol red (Gibco). […] The changes in fluorescent intensities were measured immediately after (-)-CHANA addition and 2 h later. The fluorescence intensities of the CHANK product were taken by using the TECAN SPARK 10 M instrument (Ex/Em = 380/525 nm). The residual 17β-HSD10 activity was calculated as ΔF between 2 and 0 h after (-)-CHANA treatment, and the data were normalized between nontreated HEK-293-HSD10 and native, nontransfected HEK-293 controls (using relative response ratio). […]

The structures appear in SMILES notation. pIC50: −log10 of the molar value. Where “and” joins values, the source holds several entries; their conditions need not be identical. Identical values can stand only once. Entries after “also recorded” stand apart in the source; their conditions may differ.

Usually pIC50 stands for the IC50 on a negative log10 scale, so that one unit is a factor of ten. The term inhibition denotes the relative decrease from the control value, in per cent. Take `C[C@@]12CCC[C@H]1[C@@H]1CC=C3C[C@@H](OC(=O)CCCCC(=O)O)CC[C@]3(C)[C@H]1CC2` [Compound 23, Androst-5-en-3β-yl Hemiadipate]: the “human plasma stability, % remaining after 8 h” value in data set [1] is reported as 100%. In addition, in the data set with Caco-2 cells, the “Caco-2 cell permeability (50 μM) Papp” value is given as 3.1 × 10^–6 cm/s. In data set [2], the “rat plasma stability, % remaining after 8 h” value is 32%. Moreover, the negative-log IC50 (pIC50) on 17β-HSD10 [3] was ~4.82 and 4.82; in data set [5] (exact value not determinable, read-out: IC50 at the cellular level) it was below 4.70. Moreover, the “cytotoxicity (CellTox Green)” value in the data set on HEK-293 cells is on record as “not cytotoxic; also recorded: not toxic”. Also, the type of inhibition result on 17β-HSD10 [4] is “competitive”. The inhibition at 25 µM in data set [5] (HEK293, highest concentration 25 μM, read-out: inhibition of 17β-HSD10 activity in cells) was around 50%.

The values above are taken from paper PMC10938439, “C-3 Steroidal Hemiesters as Inhibitors of 17β-Hydroxysteroid Dehydrogenase Type 10” (ACS Omega, 2024).
